From US11753411B2, “Substituted pyrazolo[1,5-a]pyrimidines as TYK2 pseudokinase ligands” (Ventyx Biosciences, Inc., priority 2019, dated 2023)

Each compound was assayed on IFN-a/Jak1 Tyk2 (assay: Co-stimulation assay in lysed whole blood: IFNa (JAK1/TYK2) stimulated STAT1 phosphorylation). Details: Homo sapiens, 20 min, 100 ng/mL IFNa (with 10 ng/mL GM-CSF), pSTAT by flow cytometry.
Type: cell-based
Method: Example 12: Co-Stimulation Assay in Lysed Whole Blood; JAK2: GM-CSF Stimulated STAT5 Phosphorylation and JAK1/TYK2 Stimulated STAT1 Phosphorylation Assay
Human Blood Lysis Using Abcam's RBC Lysis Buffer
Dilute RBC lysis buffer to 1× in distilled water. Add 2 mL blood to 38 mL of 1×RBC-lysis buffer. Incubate for 15 mins at RT, in dark. Spin at 300 g, 5 mins, to collect the pellet. Re-lyse if necessary. Re-suspend pellet in 5 mL of cRPMI.
Compound and Cytokine Treatment
Aliquot 80 μL of lysed human blood in to wells of 96 deep-well plate. Add 10 μl of (10× conc.) of different concentrations of compounds to all wells except controls (unstained and unstimulated) and mix it with the help of 100 uL multichannel. Add 10 uL of RPMI media in controls. For dilution of compounds and dilution range please refer Appendix. Incubate on water bath or CO2 incubator for 1 hour at 37° C. Add 10 μl of (10× conc.) of cytokine mix (GM-CSF and IFNa) (final conc.10 ng/mL of GM-CSF and 100 ng/mL of IFNa) to each well except unstimulated and unstained controls and incubate further for 20 minutes on water bath at 37° C.
Add 900 μL of prewarmed 1× Fix/Lyse solution (Appendix) and mix it properly using 1000 μl multichannel, incubate further on water bath at 37° C. for 10 minutes (which includes time of addition). Centrifuge at 800×g for 5 minutes at 40° C.; remove 900 uL of supernatant and add 900 μL of 1×PBS. Centrifuge at 800×g for 5 minutes at 40° C., remove 900 μL of supernatant. Wash one more time with 900 μL of PBS (optional) and resuspend pellets in 100 uL of PBS.
Disrupt the pellet by gentle tapping and resuspend in 1000 μL of BD Phosflow Perm Buffer III and incubate plate on ice for 30 minutes. Centrifuge plate at 800×g for 5 minutes at 40° C. Wash two more times with 1000 μL of BD Pharmingen Stain Buffer.
Disrupt the pellet by gentle tapping. Resuspend pellets in 100 uL of Stain Buffer and add 5 μL of pSTAT5_AF488 Ab and 5 uL of pSTAT_PE in all wells except unstained control and mix properly using 200 μl multichannel, incubate overnight at […]. Add 900 μL of wash buffer and centrifuge at 1800 rpm for 3 minutes at 40° C. Wash one more time with 1000 μL of BD Pharmingen Stain Buffer. Finally resuspend the pellet in 300 uL of BD Pharmingen Stain Buffer. Transfer the cells to 96-well v-bottom plate and acquire the cells in Beckman Coulter CytExpert. Acquiring cells in Flow Cytometer: Keep the threshold value to 250 and cell concentration should not exceed 100-500 cells/μL. Acquire at least 5,000-10,000 cells.
RPMI 1640 Complete Medium: RPMI 1640 media+10% FBS.
Cytokine dilution: 1) GM-CSF Stock at 100 ug/mL. Prepare an intermediate dilution of 1 ug/mL by adding 2 uL of stock into 198 uL of cRPMI. Further dilute to 100 ng/mL by adding 100 uL of the intermediate stock to 900 uL of cRPMI. 2) IFNa Stock at 200 ug/mL. Dilute IFNa stock 1:200 by adding 5 uL of stock into the 1000 uL of 100 ng/mL GM-CSF working stock as above to give a combined working stock of 1000 ng/mL of IFNa and 100 ng/mL GM-CSF (10×). Keep it on ice until used.
Lyse/Fix buffer preparation: Dilute 5× Lyse/Fix buffer to 1× using MQ water and keep at 37° C. until used.
BD Phosflow perm buffer III: Keep on ice/fridge.

| SMILES | IC50 [µM] |
| --- | --- |
| CNc1cc(Nc2cc(Cl)cc3c2OCCO3)nc2c(NC(=O)NC3CC3)cnn12 [Compound 85, 1-(5-((7-chloro-2,3-dihydrobenzo[b][1,4]dioxin-5-yl)amino)-7-(methylamino)pyrazolo[1,5-a]pyrimidin-3-yl)-3-cyclopropylurea] | < 1 |
| CNc1cc(Nc2cccc3c2OCCO3)nc2c(NC(N)=O)cnn12 [Compound 10, 1-(5-((2,3-dihydrobenzo[b][1,4]dioxin-5-yl)amino)-7-(methylamino)pyrazolo[1,5-a]pyrimidin-3-yl)urea] | < 1 |
| CNc1cc(Nc2cccc3c2OCCO3)nc2c(NC(=O)N[C@@H]3C[C@@H]3C#N)cnn12 [Compound 45, 1-((1R,2S)-2-cyanocyclopropyl)-3-(5-((2,3-dihydrobenzo[b][1,4]dioxin-5-yl)amino)-7-(methylamino)pyrazolo[1,5-a]pyrimidin-3-yl)urea] | < 1 |
| CNC(=O)Nc1cnn2c(NC)cc(Nc3cccnc3OC3CCOCC3)nc12 [Compound 94, 1-methyl-3-(7-(methylamino)-5-((2-((tetrahydro-2H-pyran-4-yl)oxy)pyridin-3-yl)amino)pyrazolo[1,5-a]pyrimidin-3-yl)urea] | 1 to 10 |
| CNc1cc(Nc2cccc3c2OCCO3)nc2c(NC(=O)NC3(C#N)CC3)cnn12 [Compound 28, 1-(1-cyanocyclopropyl)-3-(5-((2,3-dihydrobenzo[b][1,4]dioxin-5-yl)amino)-7-(methylamino)pyrazolo[1,5-a]pyrimidin-3-yl)urea] | ≥ 10 |
| CNc1cc(Nc2cccc3occc23)nc2c(NC(=O)NCC#N)cnn12 [Compound 131, 1-(5-(benzofuran-4-ylamino)-7-(methylamino)pyrazolo[1,5-a]pyrimidin-3-yl)-3-(cyanomethyl)urea] | < 1 |
| CNC(=O)Nc1cnn2c(NC)cc(Nc3ccnc4c3OCCO4)nc12 [Compound 92, 1-(5-((2,3-dihydro-[1,4]dioxino[2,3-b]pyridin-8-yl)amino)-7-(methylamino)pyrazolo[1,5-a]pyrimidin-3-yl)-3-methylurea] | 1 to 10 |
| CNC(=O)Nc1cnn2c(NC)cc(Nc3cccc4cccnc34)nc12 [Compound 64, 1-methyl-3-(7-(methylamino)-5-(quinolin-8-ylamino)pyrazolo[1,5-a]pyrimidin-3-yl)urea] | < 1 |
| CNc1cc(Nc2cc(F)cc3c2OCCO3)nc2c(NC(=O)NCC3(C#N)CC3)cnn12 [Compound 180, 1-((1-cyanocyclopropyl)methyl)-3-(5-((7-fluoro-2,3-dihydrobenzo[b][1,4]dioxin-5-yl)amino)-7-(methylamino)pyrazolo[1,5-a]pyrimidin-3-yl)urea] | ≥ 10 |
| CNC(=O)Nc1cnn2c(NC)cc(-c3cn(C)c4ncccc34)nc12 [Compound 74, 1-methyl-3-(5-(1-methyl-1H-pyrrolo[2,3-b]pyridin-3-yl)-7-(methylamino)pyrazolo[1,5-a]pyrimidin-3-yl)urea] | 1 to 10 |
| CNc1cc(-c2cn(C(C)C)c3ncccc23)nc2c(NC(=O)NCC#N)cnn12 [Compound 130, 1-(cyanomethyl)-3-(5-(1-isopropyl-1H-pyrrolo[2,3-b]pyridin-3-yl)-7-(methylamino)pyrazolo[1,5-a]pyrimidin-3-yl)urea] | < 1 |
| CNc1cc(Nc2cc(F)cc3c2OCCO3)nc2c(NC(=O)N[C@H]3C[C@@H]3F)cnn12 [Compound 41, 1-(5-((7-fluoro-2,3-dihydrobenzo[b][1,4]dioxin-5-yl)amino)-7-(methylamino)pyrazolo[1,5-a]pyrimidin-3-yl)-3-((1S,2S)-2-fluorocyclopropyl)urea] | < 1 |
| CNC(=O)Nc1cnn2c(NC)cc(Nc3cccnc3OC)nc12 [Compound 164, 1-(5-((2-methoxypyridin-3-yl)amino)-7-(methylamino)pyrazolo[1,5-a]pyrimidin-3-yl)-3-methylurea] | < 1 |
| CNC(=O)Nc1cnn2c(NC)cc(Nc3cc(F)cc(F)c3OC)nc12 [Compound 143, 1-(5-((3,5-difluoro-2-methoxyphenyl)amino)-7-(methylamino)pyrazolo[1,5-a]pyrimidin-3-yl)-3-methylurea] | < 1 |
| C#CCNC(=O)Nc1cnn2c(NC)cc(Nc3cc(F)cc4c3OCCO4)nc12 [Compound 111, 1-(5-((7-fluoro-2,3-dihydrobenzo[b][1,4]dioxin-5-yl)amino)-7-(methylamino)pyrazolo[1,5-a]pyrimidin-3-yl)-3-(prop-2-yn-1-yl)urea] | < 1 |
| CNc1cc(Nc2cccc3c2OCCO3)nc2c(NC(=O)N[C@@H]3C[C@@H]3F)cnn12 [Compound 26, 1-(5-((2,3-dihydrobenzo[b][1,4]dioxin-5-yl)amino)-7-(methylamino)pyrazolo[1,5-a]pyrimidin-3-yl)-3-((1R,2S)-2-fluorocyclopropyl)urea] | < 1 |
| CNC(=O)Nc1cnn2c(NC)cc(Nc3ccccc3)nc12 [Compound 146, 1-methyl-3-(7-(methylamino)-5-(phenylamino)pyrazolo[1,5-a]pyrimidin-3-yl)urea] | 1 to 10 |
| CNC(=O)Nc1cnn2c(NC)cc(Nc3cccc4c3OCO4)nc12 [Compound 153, 1-(5-(benzo[d][1,3]dioxol-4-ylamino)-7-(methylamino)pyrazolo[1,5-a]pyrimidin-3-yl)-3-methylurea] | < 1 |
| CNc1cc(Nc2cc(F)cc3c2OCCO3)nc2c(NC(=O)NC3CC3F)cnn12 (centres unmarked) [Compound 37, 1-(5-((7-fluoro-2,3-dihydrobenzo[b][1,4]dioxin-5-yl)amino)-7-(methylamino)pyrazolo[1,5-a]pyrimidin-3-yl)-3-(2-fluorocyclopropyl)urea] | < 1 |
| CNC(=O)Nc1cnn2c(NC)cc(Nc3cccc(-c4cnn(C)c4)c3OC)nc12 [Compound 19, 1-(5-((2-methoxy-3-(1-methyl-1H-pyrazol-4-yl)phenyl)amino)-7-(methylamino)pyrazolo[1,5-a]pyrimidin-3-yl)-3-methylurea] | 1 to 10 |
| CNC(=O)Nc1cnn2c(NC)cc(Nc3ccccc3Oc3ccccc3)nc12 [Compound 161, 1-methyl-3-(7-(methylamino)-5-((2-phenoxyphenyl)amino)pyrazolo[1,5-a]pyrimidin-3-yl)urea] | 1 to 10 |
| CNc1cc(Nc2cccc3c2OCCO3)nc2c(NC(=O)NCCOC)cnn12 [Compound 112, 1-(5-((2,3-dihydrobenzo[b][1,4]dioxin-5-yl)amino)-7-(methylamino)pyrazolo[1,5-a]pyrimidin-3-yl)-3-(2-methoxyethyl)urea] | < 1 |
| C#CCNC(=O)Nc1cnn2c(NC)cc(Nc3cccc4c3OCCO4)nc12 [Compound 101, 1-(5-((2,3-dihydrobenzo[b][1,4]dioxin-5-yl)amino)-7-(methylamino)pyrazolo[1,5-a]pyrimidin-3-yl)-3-(prop-2-yn-1-yl)urea] | < 1 |
| CNC(=O)Nc1cnn2c(NC)cc(Nc3cccc4c3CCCC4)nc12 [Compound 170, 1-methyl-3-(7-(methylamino)-5-((5,6,7,8-tetrahydronaphthalen-1-yl)amino)pyrazolo[1,5-a]pyrimidin-3-yl)urea] | 1 to 10 |
| CNC(=O)Nc1cnn2c(NC)cc(Nc3cccc4occc34)nc12 [Compound 104, 1-(5-(benzofuran-4-ylamino)-7-(methylamino)pyrazolo[1,5-a]pyrimidin-3-yl)-3-methylurea] | < 1 |
| CNc1cc(Nc2cc(F)cc3c2OCCO3)nc2c(NC(=O)NC(C)C#N)cnn12 (centres unmarked) [Compound 120, 1-(1-cyanoethyl)-3-(5-((7-fluoro-2,3-dihydrobenzo[b][1,4]dioxin-5-yl)amino)-7-(methylamino)pyrazolo[1,5-a]pyrimidin-3-yl)urea] | < 1 |
